# Measured values from patent US20230263822A1, “MODULATION OF FACTOR 11 EXPRESSION” (Ionis Pharmaceuticals, Inc., priority 2008, published 2023).
# Strand notation (5' to 3'): a small letter for the sugar, then the base; units joined by * are phosphorothioate-linked, units joined directly phosphodiester-linked; [ ] holds rarer units or linkages, { } end groups; capitals alone tell only the bases. e = 2'-O-(2-methoxyethyl) (MOE); [5mC] = 5-methylcytosine; d = 2'-deoxy (DNA)
# How the values were obtained:
# Factor 11 protein = Factor 11 protein in monkey plasma by sandwich ELISA (Example 46); format: in vivo, cynomolgus monkeys; settings: for Inhibition of Factor 11 protein relative to the PBS control (percentage reduction): 25 mg/kg subcutaneously
# Method: (§1) Groups, each consisting of two male and two female monkeys, were injected subcutaneously with 25 mg/kg of ISIS 416850, ISIS 449709, ISIS 445522, ISIS 449710, ISIS 449707, ISIS 449711, ISIS 449708, 416858, and ISIS 445531. Antisense oligonucleotide was administered to the monkeys at 25 mg/kg three times per week for week 1 and 25 mg/kg twice per week for weeks 2 to 8. A control group, consisting of two male and two female monkeys was injected subcutaneously with PBS according to the same dosing regimen. Body weights were taken 14 days and 7 days before the start of treatment and were then measured weekly throughout the treatment period. Blood samples were collected 14 days and 5 days before the start of treatment and subsequently several times during the dosing regimen for PT and aPTT measurements, and measurement of various hematologic factors. On day 55, the monkeys were euthanized by exsanguination while under deep anesthesia, and organs harvested for further analysis.
# Plasma samples from all monkey groups taken on different days were analyzed by a sandwich-style ELISA assay (Affinity Biologicals Inc.) using an affinity-purified polyclonal anti-Factor 11 antibody as the capture antibody and a peroxidase-conjugated polyclonal anti-Factor 11 antibody as the detecting antibody. Monkey plasma was diluted 1:50 for the assay. Peroxidase activity was expressed by incubation with the substrate o-phenylenediamine. The color produced was quantified using a microplate reader at 490 nm and was considered to be proportional to the concentration of Factor 11 in the samples.
# The results are presented in Table 147, expressed as percentage reduction relative to that of the PBS control.
# [1] = test system: IL-1β, IL-6, IFN-γ, TNF-α, IL-8, MIP-1α, MCP-1, MIP-1β, RANTES; assay: Cytokine and chemokine assays in cynomolgus monkeys (Example 46); format: in vivo
# Method: as §1
# Blood samples obtained from all monkey groups were sent to Pierce Biotechnology (Woburn, Mass.) for measurements of chemokine and cytokine levels. Levels of IL-1β, IL-6, IFN-γ, and TNF-α were measured using the respective primate antibodies and levels of IL-8, MIP-1α, MCP-1, MIP-1β and RANTES were measured using the respective cross-reacting human antibodies. Measurements were taken 14 days before the start of treatment and on day 55, when the monkeys were euthanized.
# [2] = day-14 (before start of treatment)
Substance,IFN-γ level ([1]; day 55) [pg/mL],IL-1ß level ([1]; day 55) [pg/mL],IL-6 level ([1]; day 55) [pg/mL],IL-8 level ([1]; day 55) [pg/mL],MCP-1 level ([1]; day 55) [pg/mL],MIP-1ß level ([1]; day 55) [pg/mL],MIP-1α level ([1]; day 55) [pg/mL],RANTES level ([1]; day 55) [pg/mL],TNF-α level ([1]; day 55) [pg/mL],"IFN-γ level [1, 2] [pg/mL]","IL-1ß level [1, 2] [pg/mL]","IL-6 level [1, 2] [pg/mL]","IL-8 level [1, 2] [pg/mL]","MCP-1 level [1, 2] [pg/mL]","MIP-1ß level [1, 2] [pg/mL]","MIP-1α level [1, 2] [pg/mL]","RANTES level [1, 2] [pg/mL]","TNF-α level [1, 2] [pg/mL]",also measured
445522 (antisense eG*e[5mC]*eA*e[5mC]*eA*dG*dT*dT*dT*d[5mC]*dT*dG*dG*e[5mC]*eA*eG*eG*e[5mC]) [compound 445522],,,,,,,,,,,,,,,,,,,"Inhibition of Factor 11 protein relative to the PBS control (percentage reduction) (Factor 11 protein; Day 10, plasma): 36%; Inhibition of Factor 11 protein relative to the PBS control (percentage reduction) (Factor 11 protein; Day 17, plasma): 50%; Inhibition of Factor 11 protein relative to the PBS control (percentage reduction) (Factor 11 protein; Day 24, plasma): 61%; Inhibition of Factor 11 protein relative to the PBS control (percentage reduction) (Factor 11 protein; Day 31, plasma): 70%; Inhibition of Factor 11 protein relative to the PBS control (percentage reduction) (Factor 11 protein; Day 38, plasma): 73%; Inhibition of Factor 11 protein relative to the PBS control (percentage reduction) (Factor 11 protein; Day 45, plasma): 77%; Inhibition of Factor 11 protein relative to the PBS control (percentage reduction) (Factor 11 protein; Day 52, plasma): 80%; Inhibition of Factor 11 protein relative to the PBS control (percentage reduction) (Factor 11 protein; Day 55, plasma): 82%; Inhibition of Factor 11 protein relative to the PBS control (percentage reduction) (Factor 11 protein; Day −5, plasma): 0%; Inhibition of Factor 11 protein relative to the PBS control (percentage reduction) (Factor 11 protein; Day −14, plasma): 2%"
445531 (antisense eG*eG*e[5mC]*eA*eT*dT*dG*dG*dT*dG*d[5mC]*dA*d[5mC]*eA*eG*eT*eT*eT) [compound 445531],,,,,,,,,,,,,,,,,,,"Inhibition of Factor 11 protein relative to the PBS control (percentage reduction) (Factor 11 protein; Day 10, plasma): 9%; Inhibition of Factor 11 protein relative to the PBS control (percentage reduction) (Factor 11 protein; Day 17, plasma): 22%; Inhibition of Factor 11 protein relative to the PBS control (percentage reduction) (Factor 11 protein; Day 24, plasma): 23%; Inhibition of Factor 11 protein relative to the PBS control (percentage reduction) (Factor 11 protein; Day 31, plasma): 27%; Inhibition of Factor 11 protein relative to the PBS control (percentage reduction) (Factor 11 protein; Day 38, plasma): 29%; Inhibition of Factor 11 protein relative to the PBS control (percentage reduction) (Factor 11 protein; Day 45, plasma): 32%; Inhibition of Factor 11 protein relative to the PBS control (percentage reduction) (Factor 11 protein; Day 52, plasma): 32%; Inhibition of Factor 11 protein relative to the PBS control (percentage reduction) (Factor 11 protein; Day 55, plasma): 37%; Inhibition of Factor 11 protein relative to the PBS control (percentage reduction) (Factor 11 protein; Day −5, plasma): 1%; Inhibition of Factor 11 protein relative to the PBS control (percentage reduction) (Factor 11 protein; Day −14, plasma): 0%"
"ISIS 416850: MOE gapmer, nucleobases 1275 to 1318 of SEQ ID NO: 1 (Table 8) (antisense TGCACAGTTTCTGGCAGGCC; MOE gapmer, wing and gap sizes not given here)",19,106,1,620,887,50,17,27503,16,115,215,1,45,434,31,14,4560,4,"Factor 11 protein levels in plasma (Factor 11 protein; cynomolgus monkeys, 25 mg/kg): time-dependent decrease in protein levels"
ISIS 445531: 5-8-5 or 6-8-6 MOE microwalk gapmer (Table 44) (antisense eG*eG*e[5mC]*eA*eT*dT*dG*dG*dT*dG*d[5mC]*dA*d[5mC]*eA*eG*eT*eT*eT),15,155,1,293,339,84,12,5935,16,68,101,2,83,317,22,25,7825,9,
"ISIS 449707: 3-8-3, 4-8-4, 2-10-2, 3-10-3 or 4-10-4 MOE microwalk gapmer (Table 46) (antisense e[5mC]*eA*e[5mC]*eA*dG*dT*dT*dT*d[5mC]*dT*dG*dG*e[5mC]*eA*eG*eG)",24,97,1,48,264,49,12,1193,16,34,115,1,106,294,13,16,3014,6,
"ISIS 449708: 3-8-3, 4-8-4, 2-10-2, 3-10-3 or 4-10-4 MOE microwalk gapmer (Table 46) (antisense eA*e[5mC]*eA*dG*dT*dT*dT*d[5mC]*dT*dG*dG*e[5mC]*eA*eG)",18,131,0,85,409,128,23,4561,17,27,35,1,184,361,19,11,11666,12,
"ISIS 449710: 3-8-3, 4-8-4, 2-10-2, 3-10-3 or 4-10-4 MOE microwalk gapmer (Table 46) (antisense e[5mC]*eA*e[5mC]*dA*dG*dT*dT*dT*d[5mC]*dT*dG*dG*d[5mC]*eA*eG*eG)",176,286,2,348,474,53,27,22656,26,1115,271,7,29,409,18,20,1215,72,
"ISIS 449711: 3-8-3, 4-8-4, 2-10-2, 3-10-3 or 4-10-4 MOE microwalk gapmer (Table 46) (antisense eA*e[5mC]*dA*dG*dT*dT*dT*d[5mC]*dT*dG*dG*d[5mC]*eA*eG)",22,146,7,110,469,91,17,3029,31,29,79,2,156,264,24,20,3687,6,
